According to patent US10065971B2 (priority 2014, dated 2018):
Counter-ions that a name gives are not always drawn. Values belong to the compound of their own block, whether it stands above or below them.

Target: human σ1 receptor (Homo sapiens, UniProt Q99720)
Assay: biochemical
Set-up: μ and σ1 dual binding: scale not given here
Conditions: combined class from Ki at human σ1 receptor (A1) and Ki at human μ-opioid receptor (A2), radioligand binding
Description: Biological Activity Pharmacological Study Human σ1 Receptor Radioligand Assay
The assay was carried out with 7 μg of membrane suspension, 5 nM of [^3H](+)-pentazocine in either absence or presence of either buffer or 10 μM Haloperidol for total and non-specific binding, respectively. Binding buffer contained Tris-HCl 50 mM at pH 8. Plates were incubated at 37° C. for 120 minutes. After the incubation period, the reaction mix was then transferred to MultiScreen HTS, FC plates (Millipore), filtered and plates were washed 3 times with ice-cold 10 mM Tris-HCL (pH7.4). Filters were dried and counted at approximately 40% efficiency in a MicroBeta scintillation counter (Perkin-Elmer) using EcoScint liquid scintillation cocktail

Sequence of human σ1 receptor (Q99720 whole entry): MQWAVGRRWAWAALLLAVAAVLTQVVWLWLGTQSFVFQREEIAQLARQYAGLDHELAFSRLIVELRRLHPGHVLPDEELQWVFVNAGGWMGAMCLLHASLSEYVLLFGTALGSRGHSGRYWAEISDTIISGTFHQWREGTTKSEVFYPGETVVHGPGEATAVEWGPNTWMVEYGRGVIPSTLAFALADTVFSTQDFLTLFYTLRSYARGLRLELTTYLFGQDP

Structure (SMILES): Cl.O=C(Cc1ccccc1)N1CCOC2(CCN(CCc3ccccc3)CC2)C1 [Example 4, 1-(9-phenethyl-1-oxa-4,9-diazaspiro[5.5]undecan-4-yl)-2-phenylethanone hydrochloride]
μ and σ1 dual binding: ++

Structure (SMILES): Cl.O=C(c1cccnc1)N1CCOC2(CCN(CCc3ccccc3)CC2)C1 [Example 5, (9-phenethyl-1-oxa-4,9-diazaspiro[5.5]undecan-4-yl)(pyridin-3-yl)methanone hydrochloride]
μ and σ1 dual binding: ++

Structure (SMILES): O=C(c1cscn1)N1CCOC2(CCN(CCc3ccccc3)CC2)C1 [Example 12, (9-phenethyl-1-oxa-4,9-diazaspiro[5.5]undecan-4-yl)(thiazol-4-yl)methanone]
μ and σ1 dual binding: ++

Structure (SMILES): Cl.O=C(c1nccs1)N1CCOC2(CCN(CCc3ccccc3)CC2)C1 [Example 13, (9-phenethyl-1-oxa-4,9-diazaspiro[5.5]undecan-4-yl)(thiazol-2-yl)methanone hydrochloride]
μ and σ1 dual binding: ++

Structure (SMILES): Cl.O=C(c1cncs1)N1CCOC2(CCN(CCc3ccccc3)CC2)C1 [Example 14, (9-phenethyl-1-oxa-4,9-diazaspiro[5.5]undecan-4-yl)(thiazol-5-yl)methanone hydrochloride]
μ and σ1 dual binding: ++

Structure (SMILES): Cl.O=C(Cc1cccnc1)N1CCOC2(CCN(CCc3ccccc3)CC2)C1 [Example 15, 1-(9-phenethyl-1-oxa-4,9-diazaspiro[5.5]undecan-4-yl)-2-(pyridin-3-yl)ethanone hydrochloride]
μ and σ1 dual binding: ++

Structure (SMILES): Cl.O=C(CC1CCOCC1)N1CCOC2(CCN(CCc3ccccc3)CC2)C1 [Example 16, 1-(9-phenethyl-1-oxa-4,9-diazaspiro[5.5]undecan-4-yl)-2-(tetrahydro-2H-pyran-4-yl)ethanone hydrochloride]
μ and σ1 dual binding: ++

Ki (read-out: μ and σ1 dual binding): > 0.5 µM
Structure (SMILES): O=C(C1CCOCC1)N1CCOC2(CCN(CCc3ccccc3)CC2)C1 [Example 18, (9-phenethyl-1-oxa-4,9-diazaspiro[5.5]undecan-4-yl)(tetrahydro-2H-pyran-4-yl)methanone]

Structure (SMILES): Cl.O=C(Cc1ccccn1)N1CCOC2(CCN(CCc3ccccc3)CC2)C1 [Example 19, 1-(9-phenethyl-1-oxa-4,9-diazaspiro[5.5]undecan-4-yl)-2-(pyridin-2-yl)ethanone hydrochloride]
μ and σ1 dual binding: ++

Structure (SMILES): Cl.O=C(CC1CC1)N1CCOC2(CCN(CCc3ccccc3)CC2)C1 [Example 20, 2-cyclopropyl-1-(9-phenethyl-1-oxa-4,9-diazaspiro[5.5]undecan-4-yl)ethanone hydrochloride]
μ and σ1 dual binding: ++

Structure (SMILES): Cl.O=C(c1ncccc1F)N1CCOC2(CCN(CCc3ccccc3)CC2)C1 [Example 25, (3-fluoropyridin-2-yl)(9-phenethyl-1-oxa-4,9-diazaspiro[5.5]undecan-4-yl)methanone hydrochloride]
μ and σ1 dual binding: ++

Structure (SMILES): Cl.O=C(c1cncc(F)c1)N1CCOC2(CCN(CCc3ccccc3)CC2)C1 [Example 26, (5-fluoropyridin-3-yl)(9-phenethyl-1-oxa-4,9-diazaspiro[5.5]undecan-4-yl)methanone hydrochloride]
μ and σ1 dual binding: ++

Structure (SMILES): CC1CN(C(=O)c2ncccc2F)CC2(CCN(CCc3ccccc3)CC2)O1.Cl (stereo not drawn) [Example 32, (3-fluoropyridin-2-yl)(2-methyl-9-phenethyl-1-oxa-4,9-diazaspiro[5.5]undecan-4-yl)methanone hydrochloride]
μ and σ1 dual binding: ++

Structure (SMILES): CC1CN(C(=O)c2cncc(C(F)(F)F)c2)CC2(CCN(CCc3ccccc3)CC2)O1.Cl (stereo not drawn) [Example 36, (2-methyl-9-phenethyl-1-oxa-4,9-diazaspiro[5.5]undecan-4-yl)(5-(trifluoromethyl)pyridin-3-yl)methanone hydrochloride]
μ and σ1 dual binding: ++

Structure (SMILES): CC1CN(C(=O)c2ccccc2)CC2(CCN(CCc3cccc(C(F)(F)F)n3)CC2)O1 (stereo not drawn) [Example 38, (2-methyl-9-(2-(6-(trifluoromethyl)pyridin-2-yl)ethyl)-1-oxa-4,9-diazaspiro[5.5]undecan-4-yl)(phenyl)methanone dihydrochloride]
μ and σ1 dual binding: ++
